In patent US9809623B2, “α4β7 peptide monomer and dimer antagonists” (Protagonist Therapeutics, Inc., priority 2014, dated 2017):
Numbered stars: 1 amine (or outer) side, 2 acyl side, 3 side chain; on linkers, the order of the positions; unused ones are H or OH. Bridge positions count the residues as written; N and C are the ends. Square brackets hold non-standard residues; d marks the D form. Peptide text beside a SMILES is read from it. I, II: the chains in the order shown. ξ: configuration not given here. Phe(4-tBu) = CC(C)(C)c1ccc(C[C@H](N)C(=O)O)cc1; Diglycolyl = O=C(COCC(=O)[*:2])[*:1]; NMeR = CN[C@@H](CCCNC(=N)N)C(=O)O; β3hE = N[C@@H](CCC(=O)O)CC(=O)O; Thr(3ξ) = CC(O)[C@H](N)C(=O)O; Pen = CC(C)(S)[C@H](N)C(=O)O

Key:
α4β1 = α4β1 (Homo sapiens, UniProt P05556+P13612); experiment: PBMC Memory T Cell Adhesion Assay, adhesion to VCAM-1; assay type: cell-based; details: memory T cells isolated from human PBMC donors; read-out: IC50 (nM), memory T cells, Integrin α4β1, Ligand VCAM-1
Sequence of α4β1 (P13612 34-1032): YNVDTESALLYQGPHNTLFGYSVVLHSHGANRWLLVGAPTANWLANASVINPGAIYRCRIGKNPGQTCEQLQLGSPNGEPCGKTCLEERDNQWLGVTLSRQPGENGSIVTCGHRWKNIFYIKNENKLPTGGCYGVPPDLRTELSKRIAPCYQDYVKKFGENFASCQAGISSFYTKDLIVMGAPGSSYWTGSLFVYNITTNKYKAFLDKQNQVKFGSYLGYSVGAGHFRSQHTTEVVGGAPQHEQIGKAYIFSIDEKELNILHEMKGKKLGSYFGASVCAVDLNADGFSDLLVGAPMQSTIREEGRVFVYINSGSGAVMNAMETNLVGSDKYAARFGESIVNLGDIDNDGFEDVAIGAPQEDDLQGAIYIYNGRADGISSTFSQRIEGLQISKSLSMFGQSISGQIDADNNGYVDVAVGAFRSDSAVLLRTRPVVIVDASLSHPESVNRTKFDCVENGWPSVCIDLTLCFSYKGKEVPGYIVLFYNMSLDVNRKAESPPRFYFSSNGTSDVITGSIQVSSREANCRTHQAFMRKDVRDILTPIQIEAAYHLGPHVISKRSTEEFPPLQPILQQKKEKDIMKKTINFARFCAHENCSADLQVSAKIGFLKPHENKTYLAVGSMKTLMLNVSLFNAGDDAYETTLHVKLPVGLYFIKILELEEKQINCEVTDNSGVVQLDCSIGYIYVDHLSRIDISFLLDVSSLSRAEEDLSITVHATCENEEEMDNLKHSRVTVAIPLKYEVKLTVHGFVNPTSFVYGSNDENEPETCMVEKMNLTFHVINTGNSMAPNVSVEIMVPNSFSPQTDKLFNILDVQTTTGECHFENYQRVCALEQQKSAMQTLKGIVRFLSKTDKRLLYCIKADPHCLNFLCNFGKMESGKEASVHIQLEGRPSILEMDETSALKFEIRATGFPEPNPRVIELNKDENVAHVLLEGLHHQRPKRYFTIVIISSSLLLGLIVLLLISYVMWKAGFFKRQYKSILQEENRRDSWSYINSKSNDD
Sequence of α4β1 (P05556 21-798): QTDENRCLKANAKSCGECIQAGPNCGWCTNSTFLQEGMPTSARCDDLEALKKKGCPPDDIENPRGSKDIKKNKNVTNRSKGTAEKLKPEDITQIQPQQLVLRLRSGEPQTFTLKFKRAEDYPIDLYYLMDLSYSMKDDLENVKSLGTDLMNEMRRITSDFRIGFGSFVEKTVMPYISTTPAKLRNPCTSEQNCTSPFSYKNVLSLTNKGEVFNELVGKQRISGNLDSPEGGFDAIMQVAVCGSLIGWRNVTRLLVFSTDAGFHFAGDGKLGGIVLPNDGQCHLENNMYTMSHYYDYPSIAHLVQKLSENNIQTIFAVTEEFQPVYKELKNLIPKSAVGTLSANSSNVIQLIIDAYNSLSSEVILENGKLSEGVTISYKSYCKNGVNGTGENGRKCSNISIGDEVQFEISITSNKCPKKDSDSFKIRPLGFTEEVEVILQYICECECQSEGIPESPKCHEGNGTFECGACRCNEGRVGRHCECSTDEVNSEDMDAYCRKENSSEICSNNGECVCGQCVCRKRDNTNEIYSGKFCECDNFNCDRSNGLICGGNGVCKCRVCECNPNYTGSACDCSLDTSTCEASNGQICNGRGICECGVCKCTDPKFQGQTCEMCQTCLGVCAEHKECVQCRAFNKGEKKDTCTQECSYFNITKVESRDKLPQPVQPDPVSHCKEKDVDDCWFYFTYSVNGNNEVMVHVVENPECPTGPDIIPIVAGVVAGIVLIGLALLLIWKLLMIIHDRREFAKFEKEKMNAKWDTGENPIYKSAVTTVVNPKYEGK
Description: Fresh CD4+/CD45RO+ memory T cells were isolated from human peripheral blood mononuclear cell (PBMC) donors by Aragen Bioscience Inc. (Morgan Hill, Calif.). The assay plate was prepared using IgG Fc capture antibody (donkey anti human) immobilized at 500 ng/well in 50 mM sodium bicarbonate buffer, pH 9.5, ON, 4C onto a Greiner Fluotrac plate (100 ul per well). The plate was rinsed two time with Blocking Buffer (25 mM Tris HCl, pH7.5, 150 mM NaCl, 1.5% BSA, 0.05% Tween), and blocked with Blocking Buffer for 2 hours at 37 C or 5 hours at RT using 200 ul per well. The Blocking Buffer was removed and either MAdCAM-1 or VCAM-1 at 400 ng/well in Blocking Buffer was added and the plate incubated overnight at 4C (100 ul per well). The plate was washed two times with Blocking Buffer, and rinsed once with 200 ul Binding Media (DMEM phenol red free, 10 mM HEPES, 1×Na pyruvate, 1× Glutamine, and supplemented with 1 mM MnCl2 prior to use). To prepare cells, approximately 25 million CD4+/CD45RO+ memory T cells were counted by trypan blue exclusion using a haemocytometer to determine viability and cell count. […] Fluorescence intensity was measured using a Molecular Devices Gemini EM Fluorescent Plate Reader (Ex 485/Em530, Bottom Read, Reading Sensitivity=20). IC50 curves are generated using Graph Pad Prism and the curves analyzed using analyzed using a non-linear regression (four parameters) algorithm. […]

[1] = test system: C57BL/6 mice, DSS colitis; experiment: Additional 9 day DSS colitis studies; assay type: in vivo, mouse
Description: In this 9 day DSS colitis study, C57BL/6 mice were treated with 3% DSS from Day 1 to Day 6, and switched to normal water until Day 10. Daily dosing was PO BID plus drinking water for Peptide X, and 25 mg/kg IP every 3 days for the anti-α4β7 antibody DATK32. PP and blood were collected and levels of α4β7+ memory T cells analyzed by FACS.

αEβ7 integrin = experiment: FACS binding in cynomolgus monkey blood (α4β7 / αEβ7 expressing cells); assay type: cell-based; details: cynomolgus monkey blood
Description: Blood from cynomolgus monkeys was also analyzed by FACS.
Binding to αEβ7 integrin in cyno blood was also tested. Cyno blood was incubated with 1 nM Peptide X-Alexa 647, and cells expressing α4β7 or αEβ7 were analyzed by FACS. […] Binding to α4β7 was specific, because it could be blocked in the presence of a large excess (1 uM) of unlabeled Peptide X. Therefore under these conditions, it was concluded that Peptide X binds α4β7, not αEβ7.

α4β7 receptor = experiment: 7 day oral study, FACS receptor occupancy, α4β7 expression and circulating T cells; assay type: in vivo, cynomolgus monkey
Description: In certain embodiments for FACS analysis, heparinized whole blood from animals *e.g., cyanos) is stained with each of two panels of antibodies to evaluate (1) the extent of α4β7 receptor occupancy in samples treated with a peptide dimer compound or peptide monomer compound described herein; and (2) the abundance of circulating α4β7+, αEβ7+, and α4β7+αEβ7+ lymphocyte subsets. Receptor occupancy and integrin expression are assessed within memory CD4 T cells, naïve CD4 T cells, and B cells. To evaluate receptor occupancy, whole blood samples are first treated with 1 mM MnCl2 to allow peptide binding, and then pre-incubated+/−1 uM unlabeled peptide to fully occupy (i.e., block) the α4β7 receptor. Blocked and unblocked samples were stained with 1 nM Alexa 647-labeled peptide, followed by staining with antibodies against α4β7, CD45, CD4, CD45RA, and CD19. Samples are processed to lyse erythrocytes and fix leukocytes, followed by staining with a second-step reagent (streptavidin-BV421) and wash steps. To assess integrin expression and cell subset abundance, whole blood samples are stained with antibodies against α4, β7, and αE, in addition to antibodies against CD45, CD4, CD45RA, and CD19. Samples are processed to lyse erythrocytes and fix leukocytes, followed by staining with a second-step reagent (streptavidin-BV421) and wash steps. The stained samples are analyzed by flow cytometry, collecting a constant sample volume to allow calculation of absolute cell counts.
To further evaluate the in vivo properties of Peptide X in a higher species, cynomolgus monkeys were dosed with Peptide X for 7 days. Dosing was oral (nasogastric intubation) once daily. Whole blood (about 3.5 mL) was collected on Day 0 (prior to dosing) and Day 6 (1 hour post the last dose) for PK and PD analysis. On Day 6, blood was also collected from a non-dosed animal. For PD, FACS analysis was used to measure receptor occupancy, down-regulation of α4β7 expression and circulating levels of T cells expressing the integrin α4β7.
For FACS analysis, heparinized whole blood from the cynos was stained with each of two panels of antibodies to evaluate (1) the extent of α4β7 receptor occupancy in Peptide X-treated samples and (2) the abundance of circulating α4β7+, αEβ7+, and α4β7+αEβ7+ lymphocyte subsets. Receptor occupancy and integrin expression were assessed within memory CD4 T cells, naïve CD4 T cells, and B cells. To evaluate receptor occupancy, whole blood samples were first treated with 1 mM MnCl2 to allow Peptide X binding, and then pre-incubated+/−1 uM unlabeled Peptide X to fully occupy (i.e., block) the α4β7 receptor. […] All stained samples were analyzed by flow cytometry, collecting a constant sample volume to allow calculation of absolute cell counts.

In the case of CC(=O)N[C@@H]1C(=O)N(C)[C@@H](CCCNC(=N)N)C(=O)N[C@@H](CO)C(=O)N[C@@H](CC(=O)O)C(=O)N[C@@H](C(C)O)C(=O)N[C@@H](CC(C)C)C(=O)N[C@H](C(=O)N[C@@H](Cc2ccc(C(C)(C)C)cc2)C(=O)N[C@@H](CCC(=O)O)CC(=O)N[C@H](CCCCNC(=O)COCC(=O)NCCCC[C@@H](NC(=O)C[C@H](CCC(=O)O)NC(=O)[C@H](Cc2ccc(C(C)(C)C)cc2)NC(=O)[C@H]2NC(=O)[C@H](CC(C)C)NC(=O)[C@H](C(C)O)NC(=O)[C@H](CC(=O)O)NC(=O)[C@H](CO)NC(=O)[C@H](CCCNC(=N)N)N(C)C(=O)[C@@H](NC(C)=O)C(C)(C)SSC2(C)C)C(N)=O)C(N)=O)C(C)(C)SSC1(C)C (stereo partly drawn) [Peptide X, [Ac-Pen-(N-Me-Arg)-Ser-Asp-Thr-Leu-Pen-(Phe(4-tBu))-(β-homoGlu)-(D-Lys)]2-DIG] (I: Ac-[Pen][NMeR]SD[Thr(3ξ)]L[Pen][Phe(4-tBu)][β3hE][dK]-NH2 / II: Ac-[Pen][NMeR]SD[Thr(3ξ)]L[Pen][Phe(4-tBu)][β3hE][dK]-NH2; disulfide I:1-I:7, II:1-II:7; linker I:10-II:10 via Diglycolyl), the IC50 (α4β1) is reported as > 100000 nM, the “body weight loss and mucosal injury as assessed by endoscopy” value ([1]; DSS mice orally dosed daily for 9 days) is reported as “dose-dependent reduction in body weight loss and mucosal injury” and the “CD4+CD44highCD45RBlowβ7+ T cells in MLN, Peyer's Patches, spleen and blood” value ([1]; DSS mice orally dosed daily for 9 days, FACS) is reported as “dose dependent reduction”. The “α4β7+ T cells in gut lymphoid tissues and blood” value ([1]; PO BID plus drinking water) was “reduced α4β7+ T cells in gut lymphoid tissues and redirected them to blood”, the “binding site on α4β7 relative to vedolizumab” value (αEβ7 integrin) was “binds to a site on α4β7 that is distinct from the binding site for vedolizumab” and the “α4β7 expression on CD4 memory T cells” value (α4β7 receptor; all doses, Day 6 vs Day 0) was “decreased at all doses”. For the same compound, the EC50 (α4β7 receptor; by extrapolation, estimated, read-out: plasma concentration sufficient to occupy 50% of the α4β7 receptors in the blood) was ~0.35 nM, the “percentage of α4β7+ memory T cells normalized to total CD4 cells” value (α4β7 receptor; cyno blood) was “increase” and the “percent receptor occupancy in blood” value (α4β7 receptor; highest dose (75 mg/kg/day), oral once daily 7 days, CD4 memory α4β7+ T cells) was “exceeded 90%”.
